In patent US20040014637A1, “Mechanism for the inactivation of insulin receptor and uses in the treatment of type II diabetes” (McGill University, priority 1998, published 2004):
Entries after “also recorded” stand apart in the source; their conditions may differ.

Assays:
insulin receptor = target: T1, insulin receptor (Rattus norvegicus, UniProt P15127); assay: 125I-insulin binding after preincubating endosomes (ENs containing IR) with nucleotides; conditions: for 125I-insulin specific binding, WGA-purified endosomes / 125I-insulin specific binding, solubilized endosomes: preincubation 37° C. 15 min; for 125I-Insulin specific binding (%), Solubilized endosomes / 125I-Insulin specific binding (%), WGA-purified endosomes: Table 2, normalized to endosomes without nucleotide
T1 construct: from tissue; host or cells: rat liver; endosome (EN) and plasma membrane (PM) fractions
Procedure: Rats were anaesthetized with ether and were injected via jugular vein with a dose (per 100 g body weight) of insulin (1.5 μg), or bpV(phen) (0.6 μmol), dissolved in 0.2 ml. phosphate buffered saline (pH 7.4) −0.1% BSA. […] Livers were rapidly excised, placed in ice-cold homogenizing buffer (50 mM HEPES (pH 7.4), 0.25 M sucrose, 1 mM PMSF, 1 MM MgCl2, 1 mM benzamidine) and minced before homogenization. […] These subcellular fractions have been characterized in detail both morphologically and biochemically.
After 10 min at room temperature, the reactions was terminated by spotting 50 μl aliquots on Whatman 3 MM filters.
In the present study we wished to assess whether other processes might be involved in reducing the association of intraendosomal insulin with its receptor. We examined the effect of incubating intact ENs containing IR with increasing concentrations of ATP on subsequently measured insulin and hGH binding in both solubilized and WGA-purified receptors.

125I-hGH binding = 125I-hGH binding after preincubating endosomes with ATP; design: species or system rat; conditions: preincubation 37° C. 15 min, percent of control
Procedure: (1992) J. Biol. Chem. 267, 11215-11221). Livers were rapidly excised, placed in ice-cold homogenizing buffer (50 mM HEPES (pH 7.4), 0.25 M sucrose, 1 mM PMSF, 1 MM MgCl2, 1 mM benzamidine) and minced before homogenization. Combined ENs and PM fractions were prepared (Faure et al. (1992) J. Biol. Chem. 267, 11215-11221) except that the buffer used throughout was that in which the livers were minced (see above). These subcellular fractions have been characterized in detail both morphologically and biochemically. […] I. et al. (1982) J. Biol. Chem. 257, 5789-5799). Protein content in the fractions was determined by a modification of Bradford's method using serum albumin as a standard (Khan, M. N. et al. […] In the present study we wished to assess whether other processes might be involved in reducing the association of intraendosomal insulin with its receptor. We examined the effect of incubating intact ENs containing IR with increasing concentrations of ATP on subsequently measured insulin and hGH binding in both solubilized and WGA-purified receptors. […] [table]

[1] = target: T2, insulin receptor kinase (IRK) (Rattus norvegicus, UniProt P15127); assay: Insulin receptor kinase (IRK) exogenous tyrosine kinase activity, Poly (Glu:Tyr) (4:1) substrate, WGA-purified IRK from preincubated cell fractions; format: biochemical; conditions: for IRK activity of ENs containing IR (FIG. 1A): versus absence of ATP
T2 construct: from tissue; host or cells: rat liver; endosome (EN) and plasma membrane (PM) fractions

[2] = target: T3, insulin receptor kinase (IRK) β-subunit (Rattus norvegicus, UniProt P15127); assay: IRK β-subunit phosphotyrosine content (αPY immunoblot of WGA eluates); format: biochemical
T3 construct: from tissue; host or cells: rat liver; endosome (EN) and plasma membrane (PM) fractions
Procedure: The phosphotyrosine content of endosomal IRs (ENs containing IR) was determined by subjecting lectin column (WGA-Sepharose™)-purified preparations to SDS-PAGE and immunoblotting with α960 and αPY (Faure et al. (1992) J. Biol. Chem. 267, 11215-11221). […] FIG. 1B illustrates the effect of ATP on β subunit phosphotyrosine content. WGA eluates (5 μg protein) were subjected to SDS-PAGE in 7.5% gels followed by transfer of proteins to Immobilon-P membranes. Membranes were probed with αPY or α960 antibodies followed by incubation with ^125I-GAR as second antibody and exposed for autoradiography.

[3] = target: T2, insulin receptor kinase (IRK); assay: DTT-dependent reduction of endosomal IRK heterotetramer (non-reducing SDS-PAGE); format: biochemical; conditions: ENs incubated with 5 mM ATP, 10 mM DTT, 15 min 37° C.
Procedure: Endosomal pellets containing IR were resuspended (500 μg protein/ml) in a final concentration of 50 mM Tris (pH 6.9), 10% glycerol and 20 mM N-ethylmaleimide. Samples were incubated at room temperature for 5 mins and then solubilized without heating in 2.3% SDS-0.05% bromophenol blue before subjecting to SDS-PAGE in the absence of reductants (Faure et al. ([…]) J. Biol. Chem. 267, 11215-11221).
The above observation raised the possibility that intraluminal events were responsible for deactivation of the endosomal IRK. This led us to investigate whether there might be a conformational change in the IRK consequent to ATP-dependent acidification. To probe this possibility we incubated ENs containing IR with ATP in the presence or absence of 10 mM DTT to assess the ease with which Type I disulfide bonds might be reduced in the heterotetrameric molecule ([…]). […] Hepatic ENs containing IR were prepared 2 mins after insulin injection (1.5 μg/100 g body weight) and were incubated for 15 min at 37° C. in the absence or presence of 10 mM DTT and 5 mM ATP. The ENs were centrifuged and the pellets resuspended and treated as described above. Samples were applied without heating to SDS-PAGE (gradient resolving gel, 3-10% acrylamide) in the absence of reductant. […]

[4] = preincubation 1 mM ATP 15 min, second incubation 5 mM ATP
[5] = sequential incubations in 1 mM ATP

T1 sequence (P15127 27-759 limits assumed): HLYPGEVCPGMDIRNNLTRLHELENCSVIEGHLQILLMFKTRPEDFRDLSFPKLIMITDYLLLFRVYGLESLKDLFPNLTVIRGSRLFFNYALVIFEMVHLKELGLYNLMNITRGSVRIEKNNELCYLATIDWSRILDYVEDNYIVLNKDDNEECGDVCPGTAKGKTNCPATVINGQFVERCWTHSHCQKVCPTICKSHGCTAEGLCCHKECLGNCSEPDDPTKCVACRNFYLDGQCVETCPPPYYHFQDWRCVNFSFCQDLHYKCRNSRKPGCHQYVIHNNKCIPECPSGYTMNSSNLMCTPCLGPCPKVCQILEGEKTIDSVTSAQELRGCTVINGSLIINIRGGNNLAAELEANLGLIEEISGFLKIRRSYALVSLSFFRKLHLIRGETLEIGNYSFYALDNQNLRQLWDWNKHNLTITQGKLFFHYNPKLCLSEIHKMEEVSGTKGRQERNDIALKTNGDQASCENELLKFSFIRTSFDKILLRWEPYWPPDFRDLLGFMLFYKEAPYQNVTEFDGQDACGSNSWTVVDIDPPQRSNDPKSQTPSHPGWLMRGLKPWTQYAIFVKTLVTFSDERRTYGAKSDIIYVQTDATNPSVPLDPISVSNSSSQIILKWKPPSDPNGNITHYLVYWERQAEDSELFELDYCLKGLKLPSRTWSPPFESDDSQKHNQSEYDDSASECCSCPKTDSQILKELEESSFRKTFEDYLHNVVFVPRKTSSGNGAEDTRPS
T1 sequence (P15127 764-1383 limits assumed): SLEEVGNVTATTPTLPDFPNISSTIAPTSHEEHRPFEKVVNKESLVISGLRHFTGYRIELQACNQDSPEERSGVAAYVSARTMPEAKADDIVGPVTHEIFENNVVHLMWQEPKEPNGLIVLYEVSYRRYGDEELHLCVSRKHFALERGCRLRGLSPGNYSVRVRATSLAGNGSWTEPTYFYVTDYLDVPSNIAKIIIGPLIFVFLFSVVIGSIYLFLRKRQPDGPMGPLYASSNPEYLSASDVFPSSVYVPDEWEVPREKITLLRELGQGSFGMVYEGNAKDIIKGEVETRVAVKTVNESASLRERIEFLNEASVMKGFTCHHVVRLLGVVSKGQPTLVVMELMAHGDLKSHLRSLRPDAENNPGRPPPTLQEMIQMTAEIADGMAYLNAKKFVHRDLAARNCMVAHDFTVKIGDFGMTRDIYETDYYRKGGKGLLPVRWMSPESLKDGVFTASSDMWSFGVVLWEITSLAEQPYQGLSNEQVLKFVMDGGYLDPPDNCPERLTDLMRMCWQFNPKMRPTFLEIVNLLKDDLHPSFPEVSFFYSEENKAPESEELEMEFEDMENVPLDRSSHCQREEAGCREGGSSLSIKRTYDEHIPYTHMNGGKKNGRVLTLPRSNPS
T3 sequence (P15127 27-759 limits assumed): as the sequence (P15127 27-759 limits assumed) above
T3 sequence (P15127 764-1383 limits assumed): as the sequence (P15127 764-1383 limits assumed) above
T2 sequence (P15127 27-759 limits assumed): as the sequence (P15127 27-759 limits assumed) above
T2 sequence (P15127 764-1383 limits assumed): as the sequence (P15127 764-1383 limits assumed) above

Compound: Nc1ncnc2c1ncn2[C@@H]1O[C@H](COP(=O)(O)OP(=O)(O)OP(=O)(O)O)[C@@H](O)[C@H]1O [ATP, adenosine 5′triphosphate]
- 125I-insulin specific binding, WGA-purified endosomes (insulin receptor; ATP 0.1 mM, percent of control): 107.7 ± 1.5%
- 125I-insulin specific binding, solubilized endosomes (insulin receptor; ATP 0.1 mM, percent of control ENs without ATP): 103.6 ± 2.5%
- 125I-insulin specific binding, WGA-purified endosomes (insulin receptor; ATP 1 mM, percent of control): 123.9 ± 6.2%
- 125I-insulin specific binding, solubilized endosomes (insulin receptor; ATP 1 mM, percent of control): 90.9 ± 4.2%
- 125I-insulin specific binding, WGA-purified endosomes (insulin receptor; ATP 3 mM, percent of control): 99.3 ± 0.9%
- 125I-insulin specific binding, solubilized endosomes (insulin receptor; ATP 3 mM, percent of control): 96.7 ± 2.6%
- 125I-insulin specific binding, WGA-purified endosomes (insulin receptor; ATP 5 mM, percent of control): 52.1 ± 1.2%
- 125I-insulin specific binding, solubilized endosomes (insulin receptor; ATP 5 mM, percent of control): 84.2 ± 2.7%
- 125I-insulin specific binding, WGA-purified endosomes (insulin receptor; ATP 10 mM, percent of control): 8.4 ± 0.2%
- 125I-Insulin specific binding (%), Solubilized endosomes (insulin receptor; addition 0.1 mM, 37° C. 15 min): 103.4 ± 2.5%
- 125I-Insulin specific binding (%), WGA-purified endosomes (insulin receptor; addition 0.1 mM, 37° C. 15 min): 108.1 ± 2.0%
- 125I-Insulin specific binding (%), Solubilized endosomes (insulin receptor; addition 1 mM, 37° C. 15 min): 95.5 ± 14.2%
- 125I-Insulin specific binding (%), WGA-purified endosomes (insulin receptor; addition 1 mM, 37° C. 15 min): 92.2 ± 2.2%
- 125I-Insulin specific binding (%), Solubilized endosomes (insulin receptor; addition 10 mM at 4° C. (on ice)): 112.0 ± 3.3%
- 125I-Insulin specific binding (%), Solubilized endosomes (insulin receptor; addition 10 mM, 37° C. 15 min): 43.6 ± 6.3%
- 125I-Insulin specific binding (%), WGA-purified endosomes (insulin receptor; addition 10 mM, 37° C. 15 min): 25.2 ± 5.2%
- 125I-hGH specific binding, WGA-purified endosomes (125I-hGH binding; ATP 0.1 mM): 88.7 ± 3.4%
- 125I-hGH specific binding, solubilized endosomes (125I-hGH binding; ATP 0.1 mM): 105.0 ± 5.1%
- 125I-hGH specific binding, WGA-purified endosomes (125I-hGH binding; ATP 1 mM): 93.3 ± 5.1%
- 125I-hGH specific binding, solubilized endosomes (125I-hGH binding; ATP 1 mM): 84.4 ± 6.6%
- 125I-hGH specific binding, WGA-purified endosomes (125I-hGH binding; ATP 10 mM): 75.2 ± 3.5%
- 125I-hGH specific binding, solubilized endosomes (125I-hGH binding; ATP 10 mM): 98.3 ± 3.5%
- IRK activity of ENs containing IR (FIG. 1A) ([1]; 5 mM ATP, 15 min 37° C.): marked decrease
- IRK activity of ENs containing IR ([1]; 10 mM ATP, 15 min 37° C.): virtually abolished; also recorded: suppressed IRK activity completely
- IRK activity of ENs containing IR (FIG. 1A) ([1]; 0.1 and 1.0 mM ATP, 15 min 37° C.): increase
- Activity of WGA-purified IRK from plasma membrane (PM) (FIG. 3A) ([1]; PM containing IR preincubated with ATP (1 and 10 mM), 15 min 37° C.): augmentation of activity
- IRK activity after sequential incubations (FIG. 7B) [1, 4]: marked reduction
- IRK activity after sequential incubations [1, 5]: no deleterious effect
- IRK phosphotyrosine content (FIG. 1B) ([2]; 1 mM ATP, 15 min 37° C.): markedly increased
- IRK phosphotyrosine content (FIG. 1B) ([2]; 5 mM ATP, compared to 1 mM ATP): significantly reduced
- IRK phosphotyrosine content (FIG. 1B) ([2]; 10 mM ATP, compared to 1 mM ATP): virtually abolished
- IRK phosphotyrosine content after sequential incubations (FIG. 7A) [2, 4]: substantial retention
- IRK phosphotyrosine content after sequential incubations [2, 5]: no deleterious effect
- Ability of DTT to reduce tetrameric IRK molecules (FIG. 8) [3]: significantly decreased
